The values below come from PMC13198257, “An aerosolized dual-action autotaxin inhibitor-PPARγ agonist for the treatment of pulmonary fibrosis” (Cell Reports Medicine, 2026).

In data set [1] the test system is BLM-induced fibrotic mouse PCLSs. Description: Fibrotic mouse precision-cut lung slices (PCLS). Type of data set: cell-based. To be noted: 30 μΜ, 72 h. The protocol:
Fourteen days after administration, mice were euthanized and lungs were perfused with PBS. Lungs were subsequently inflated through the trachea with pre-warmed (40-42 °C) low melting-point agarose. Following agarose solidification, the left lateral lobe was excised and sectioned into 300μm-thick slices using a vibratome machine. Lung slices were placed in 12- or 24-well culture plates containing complete DMEM supplemented with 1% penicillin/streptomycin, and 0.1% amphotericin B, and maintained at 37 °C, 5% CO2 and ≥95% relative humidity. After an overnight equilibration period, slices were treated with either GLPG-1690 (30μM) or compound 5 (30μM) for 72 h. Culture medium was refreshed every 24 h throughout the treatment period. For downstream gene expression analysis, three slices were pooled per sample for RNA extraction. Control PCLS were generated from saline-treated mice. […] Fluorophore-conjugated secondary antibody (1:500) was applied for 1 h at room temperature, and nuclei were counterstained with DAPI. Brightfield and fluorescence imaging were performed using the Olympus VS200 slide scanner.

For data set [2], the system named is type 2 diabetes model. Briefly: HFD/STZ type 2 diabetes model, oGTT. Type of data set: in vivo, C57bl/6 male mice. The following applies: i.p. 50 mg/kg daily, final 2 weeks. The protocol: One-year old male mice were given a High-Fat Diet (D12492, Research Diets) for 10 weeks. During the sixth week of the HFD period, mice received three streptozotocin injections (40mg/kg). Control mice that were consuming a control diet (D12450Ji, Research Diets) received injections with the solvent of STZ, 50 mM sodium citrate buffer, pH 4.5. During the last two weeks of the HFD treatment, a subgroup of prediabetic mice was daily administered EL244 through intraperitoneal injections (50 mg/kg). Disease induction and EL244 efficacy were assessed using an Oral Glucose tolerance test (oGTT), as widely used.[64]^,[65]^,[66] 6-hr-fasted mice were administered a 10% glucose solution at 1 g/kg orally. Blood glucose levels were measured with a saccharometer before glucose administration and at 15, 30, 60, 90, and 120 min thereafter. Insulin resistance was assessed by the Area under curve (AUC) of the oGTT.

Data set [3] can be described thus: PK of EL244: plasma and lung levels after i.p. or inhaled administration. Type of data set: in vivo, mice.
In data set [4] the test system is human PCLS. Briefly: Human PCLS with pro-fibrotic cocktail. It counts as cell-based. The following applies: 25 and 50 μΜ. Here is the method:
hPCLS were prepared from tumour-free lung tissue obtained during surgical resection from a patient undergoing surgery for pulmonary adenocarcinoma (Subject ID: LB26-0020). The biopsy was provided by the Biobanque CRB-Tumorothèque de Nice, Biobanque CHU de Nice (BB-0033-00025; approved protocol # CSE 2022-EV34), collected after written informed consent, in accordance with the Declaration of Helsinki and applicable French regulations for human biological materials.
The lung biopsy was rinsed thoroughly with Hank’s balanced salt solution (HBSS, Sigma-Aldrich) supplemented with antibiotics. The tissue was then infused with a 2.5% low-melting agarose solution prepared in DMEM/F-10 containing antibiotics, maintained at 40°C, and rapidly cooled to solidify the agarose. 8 mm tissue punches were then excised and sectioned into 300 μm-thick slices using the Compresstome VF-300-0Z (Precisionary Instruments). Each hPCLS was transferred into an individual well of a 24-well plate containing 500 μL of culture medium supplemented with 1× antibiotic–antimycotic solution (penicillin, streptomycin, amphotericin B), 50 μg/mL gentamicin, 1× insulin-transferrin-selenium (ITS) supplement, and 0.1% FBS. Slices were incubated at 37°C in a humidified atmosphere with 5% CO2. The culture medium was replaced after several hours.
Fibrosis was induced by a pro-fibrotic cocktail (PFC; 5 ng/mL TGF-β1, […] PDGF-AB, 10 ng/mL TNF-a and 5 μM LPA 18:1), following a well-established protocol.[73] Individual PCLS were first incubated with the PFC for 48 h. After this initial exposure, the medium was renewed and PCLS were treated for an additional 72 h with either PFC alone or PFC supplemented with EL244 (25 μM or 50 μM). Untreated PCLS served as controls.

Data set [5] has as its system liver. Description: Serum ALT/AST after 2 weeks of inhaled EL244. The following applies: 2 weeks inhaled 15 mg/kg o.d. Type of data set: in vivo, mice. Here is the method: Figure S7. Inhaled prophylactic EL244 administration attenuates BLM-induced pulmonary fibrosis. Related to […]
EL244 was administered via inhalation at 15 mg/kg, once daily, from one day before to 14 days after bleomycin (BLM) administration (day 0). The compound was dissolved in 15% Kolliphor in saline. The vehicle (15% Kolliphor in saline) was administered to both the SAL and BLM control groups.
(A) Weight change in the different mouse groups during the 2 weeks of the pulmonary fibrosis experiment.
(B-D) Respiratory mechanics assessed using the FlexiVent system (n=6,8,7). Parameters include mean static lung compliance (B), mean respiratory system compliance (C) and mean total lung capacity (D).
(E) Total protein concentration in BALFs, as determined with the Bradford assay (n=6,8,7).
(F) Inflammatory cell numbers in BALFs, as counted with a hematocytometer (n=6,8,7).
(G) Soluble collagen levels in the BALFs were detected with the direct red assay (n=6,8,7). […]
(J) Quantification of fibrosis severity in H&E-stained lung sections via Ashcroft scoring (n=6,8,7). […]
Following normality testing, statistical significance was assessed with one-way ANOVA and post-hoc Tukey’s test (B, C, D, E, K/ALT, K/ALT/AST) or Welch ANOVA and post-hoc Games-Howell test (F, G, H, J) or Kruskal Wallis and post-hoc Dunn’s test (K/AST); */**/***/**** denote p<0.05/0.01/0.001/0.0001, respectively.

In the case of `O=C1NC(=O)C(Cc2ccc(OCCN3CCN(C(=O)OCc4cc(Cl)cc(Cl)c4)CC3)cc2)S1` (stereo not drawn) [Compound 5, 3,5-dichlorobenzyl4-(2-(4-((2,4-dioxothiazolidin-5-yl)methyl)phenoxy)ethyl)piperazine-1-carboxylate], in data set [1], the “Col1a1 mRNA expression” value is on record as “decreasing”; the “Fn1 mRNA expression” value is recorded as “decreasing”; the “Lung architecture, fibrotic lesions” value is “improved the lung architecture”.
In the case of `O=C1NC(=O)C(Cc2ccc(OCCC3CCN(C(=O)OCc4cc(Cl)cc(Cl)c4)CC3)cc2)S1` (stereo not drawn) [EL244, 3,5-dichlorobenzyl 4-(2-(4-((2,4-dioxothiazolidin-5-yl)methyl)phenoxy)ethyl)piperidine-1-carboxylate], in data set [2], the Glucose levels result is “lower glucose levels”; the “Insulin resistance (AUC of oGTT)” value is recorded as “decreased insulin resistance”; the “PPARγ target gene expression in adipose and liver tissue” value is “stimulated the expression of several PPARγ target genes”. The same compound came in with a Plasma concentration in data set [3] (i.p. 30 mg/Kg, 3 h) of about 35 μΜ. In addition, in data set [3] (inhaled 15 mg/kg), the “Clearance rate from the lung and absorption in the systemic circulation” value is “low”; the “Retention in the lung” value was “highly retained in the lung”. Further, the concentration at 1 h in data set [3] (mouse, plasma, ip, i.p. 30 mg/Kg, 1 hour) was 40 µM. Moreover, the concentration at 9 h in data set [3] (mouse, plasma, ip, i.p. 30 mg/Kg, 9 h post-dose) turned out to be 15 µM. In data set [4], the “Col1a1 and Acta2 mRNA expression” value is reported as “downregulation”; the “Development of fibrosis (histology)” value is reported as “prevented and/or attenuated the development of fibrosis”; the “PPARγ target gene expression” value was “upregulated the expression of PPARγ target genes”. Also, the “Liver toxicity (ALT/AST levels)” value in data set [5] is on record as “did not cause any appreciable toxicity in the liver”.
